Assay results reported in patent US4358458A, “Tertiary imidazolyl alcohols and method for the treatment of generalized and local infections caused by fungi and yeasts” (Nordmark-Werke GmbH, priority 1976, dated 1982).

What was measured:
[1] = LD50 (mice); settings: mouse, in vivo
[2] = test system: Candida albicans; assay: oral activity in Candida-infected mice (survival); type: in vivo; settings: 100 mg/kg orally twice a day for 7 days; for Number of Animals surviving on day 1 after infection / Number of Animals surviving on day 2 after infection / Number of Animals surviving on day 3 after infection / Number of Animals surviving on day 4 after infection / Number of Animals surviving on day 5 after infection / Number of Animals surviving on day 6 after infection / Number of Animals surviving on day 7 after infection: groups of 10 mice
Procedure: In order to determine oral activity, groups of 10 mice weighing approximately 20 g were pretreated for 2 days with intramuscular doses of 50 mg/kg of hydrocortisone in order to obtain firm rooting of the infection. The mice were then each infected intravenously with 500,000 Candida albicans germs and subsequently treated orally twice a day for 7 days with 100 mg/kg of the substance to be tested. In addition to an infected, but untreated control group, another group was treated for comparison with the comparison substance MICONAZOL.

[3] = test system: Candida albicans; assay: series dilution test in vitro, Candida albicans; type: cell-based; settings: dilution b=1:100,000
Procedure: The antimicrobial activity of the compounds corresponding to general formula (I) in vitro was tested in a series dilution test with dilution ratios of from 1:10,000 to 1:200,000 against the germs Staphylococcus aureus, Trichophyton mentagrophytes and Candida albicans.
The results were evaluated by the following graduations of the growth inhibition level:
.phi.=complete inhibition
The following dilution ratios were selected as the dilution ratio V: […]

SMILES | LD50 [1] [mg/kg] | Number of Animals surviving on day 1 after infection [2] | Number of Animals surviving on day 2 after infection [2] | Number of Animals surviving on day 3 after infection [2] | Number of Animals surviving on day 4 after infection [2] | Number of Animals surviving on day 5 after infection [2] | Number of Animals surviving on day 6 after infection [2] | Number of Animals surviving on day 7 after infection [2] | growth inhibition level, Candida albicans [3] | animals still alive on the last day of the treatment ([2]; last day of treatment) [%]
OC(Cc1ccc(Cl)cc1)(Cn1ccnc1)c1ccc(Cl)cc1 (stereo not drawn) [Example 8, 1,2-bis-(4-chlorophenyl)-3-(imidazol-1-yl)-propan-2-ol nitrate] | 1000 | 10 | 10 | 10 | 10 | 10 | 10 | 10 |  | 
OC(Cc1ccc(Cl)cc1Cl)(Cn1ccnc1)c1ccc(Cl)cc1Cl (stereo not drawn) [Example 9, 1,2-bis-(2,4-dichlorophenyl)-3-(imidazol-1-yl)-propan-2-ol-nitrate] | 1000 | 10 | 10 | 10 | 10 | 10 | 10 | 9 |  | 
OC(Cc1ccccc1)(Cn1ccnc1)c1ccc(Cl)cc1 (stereo not drawn) [Example 15, 1-phenyl-2-(4-chlorophenyl)-3-(imidazol-1-yl)-propan-2-ol nitrate] |  | 10 | 10 | 10 | 10 | 10 | 10 | 9 |  | 
OC(Cc1ccc(Cl)cc1)(Cn1ccnc1)c1ccccc1 (stereo not drawn) [Example 28, 1-(4-chlorophenyl)-2-phenyl-3-(imidazol-1-yl)-propan-2-ol nitrate] |  | 10 | 10 | 10 | 10 | 10 | 10 | 10 | + ++ | 
Cl.OC(Cc1ccc(Cl)cc1)(Cn1ccnc1)c1ccc(Cl)cc1Cl (stereo not drawn) [Example 30, 1-(4-chlorophenyl)-2-(2,4-dichlorophenyl)-3-(imidazol-1-yl)-propan-2-ol hy drochloride] | 1000 | 10 | 10 | 10 | 10 | 10 | 10 | 10 |  | 
OC(Cc1ccc(Cl)cc1Cl)(Cn1ccnc1)c1ccccc1 (stereo not drawn) [Example 34, 1-(2,4-dichlorophenyl)-2-phenyl-3-(imidazol-1-yl)-propan-2-ol nitrate] |  | 10 | 10 | 10 | 10 | 10 | 10 | 9 |  | 
Clc1ccc(COC(Cn2ccnc2)c2ccc(Cl)cc2Cl)c(Cl)c1.O=[N+]([O-])O (stereo not drawn) [MICONAZOL, 1-[2,4-dichloro-β-(2,4-dichlorobenzyloxy)-phenethyl]imidazole nitrate, reference compound] |  | 10 | 10 | 8 | 8 | 6 | 4 | 2 |  | 20
